One data set concerns the target T1, TbDHFR (Trypanosoma brucei brucei, UniProt Q27783).
T1 construct: made in house
The data set is described as follows: TbDHFR enzyme inhibition (spectrophotometric). It is filed as biochemical. The following applies: 100 μM; Table S3.

In the next data set the target is T2, hDHFR (Homo sapiens, UniProt P00374).
T2 construct: gene DHFR
T2 sequence (P00374 1-187): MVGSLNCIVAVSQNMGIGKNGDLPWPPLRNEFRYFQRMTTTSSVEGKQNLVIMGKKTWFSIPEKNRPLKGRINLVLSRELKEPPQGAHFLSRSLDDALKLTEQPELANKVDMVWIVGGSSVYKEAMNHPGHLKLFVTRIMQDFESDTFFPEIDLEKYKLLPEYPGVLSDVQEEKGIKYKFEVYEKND
Kind of data set: biochemical. Also on record: human DHFR enzyme inhibition. The procedure, abridged:
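hDHFR inhibition tested at a single concentration of 100 μM, expressed as percent inhibitory activity.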

Another data set deals with T3, CYP1A2 (Homo sapiens, UniProt P05177).
T3 sequence (P05177 1-516): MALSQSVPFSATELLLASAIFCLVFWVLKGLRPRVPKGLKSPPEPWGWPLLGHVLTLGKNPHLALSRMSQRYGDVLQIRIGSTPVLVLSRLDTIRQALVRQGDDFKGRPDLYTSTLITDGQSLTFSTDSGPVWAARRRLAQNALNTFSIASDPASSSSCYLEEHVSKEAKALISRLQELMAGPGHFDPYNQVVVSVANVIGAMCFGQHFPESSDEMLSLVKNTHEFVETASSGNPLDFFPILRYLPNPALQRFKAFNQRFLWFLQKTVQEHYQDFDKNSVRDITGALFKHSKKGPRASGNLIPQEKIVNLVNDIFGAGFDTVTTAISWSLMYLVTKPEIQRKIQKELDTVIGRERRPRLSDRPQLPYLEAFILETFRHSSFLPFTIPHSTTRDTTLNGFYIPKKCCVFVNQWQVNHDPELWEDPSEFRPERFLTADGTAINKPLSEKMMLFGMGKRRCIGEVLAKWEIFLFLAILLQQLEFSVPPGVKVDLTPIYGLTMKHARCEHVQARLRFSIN
The data set is described as follows: in vitro. Also on record: cytochrome P450 isoform inhibition. On the procedure:
(§1) Independent of the effect of any antiparasitic potential of compounds, they were evaluated using a panel of early-toxicity assays comprising cytotoxicity (A549, human lung adenocarcinoma epithelial cell line and WI-38, human lung fibroblasts), mitochondrial toxicity (786-O, human renal carcinoma cell line), hERG inhibition,[31] cytochrome P450 inhibition (CYP1A2, CYP2C9, CYP2C19, CYP2D6, and CYP3A4),[31] and Aurora B kinase inhibition. […] For the two compounds active against TbPTR1 (4m and 4o), IC50 against hERG, cytochrome P450, and mitochondrial toxicity were determined (reported in Supporting Information). We observed that the dose of compounds 4m, 4o, 4c, and 3k was 4 μM in the potentiation assays. […] In the case of hERG, CYP2D6, CYP2A9, CYP2C19, and mitochondrial toxicity, there is a selectivity index of around 3–4 fold, thus showing an acceptable profile.

A further data set has as its target CYP2C9 (Homo sapiens, UniProt P11712). Kind of data set: in vitro. Also on record: cytochrome P450 isoform inhibition. The protocol:
as §1

Another data set concerns the target CYP2D6 (Homo sapiens, UniProt P10635). The data set is described as follows: in vitro. Also on record: cytochrome P450 isoform inhibition. On the procedure:
as §1

Another data set has as its target CYP2C19 (Homo sapiens, UniProt P33261). The data set is described as follows: in vitro. On the set-up: cytochrome P450 isoform inhibition. On the procedure: as §1
Another data set concerns the target CYP3A4 (Homo sapiens, UniProt P08684). The data set is described as follows: in vitro. On the set-up: cytochrome P450 isoform inhibition. On the procedure:
as §1

For the next data set, the target named is T4, TbPTR1 (Trypanosoma brucei brucei, UniProt O76290).
T4 construct: made in house
T4 sequence (O76290 1-268): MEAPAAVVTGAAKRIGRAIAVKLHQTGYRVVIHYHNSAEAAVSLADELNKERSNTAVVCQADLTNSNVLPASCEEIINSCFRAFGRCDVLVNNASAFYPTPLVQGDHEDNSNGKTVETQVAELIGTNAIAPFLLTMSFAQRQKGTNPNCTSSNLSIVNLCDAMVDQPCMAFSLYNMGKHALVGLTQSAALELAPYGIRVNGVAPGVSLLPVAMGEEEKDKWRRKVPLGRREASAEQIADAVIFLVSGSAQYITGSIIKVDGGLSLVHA
Kind of data set: biochemical. The following applies: for inhibition at 50 µM: 50 μM compound, read-out: % Inhibition TbPTR1 at 50 μM; for IC50: dose-response 0.001-100 μM.

The next data set concerns 786-O. The data set is described as follows: cells. Also on record: mitochondrial toxicity in 786-O cells. The following applies: Homo sapiens, 786-0. On the procedure: as §1

Molecules are shown by their SMILES.

T1 sequence (Q27783 whole entry): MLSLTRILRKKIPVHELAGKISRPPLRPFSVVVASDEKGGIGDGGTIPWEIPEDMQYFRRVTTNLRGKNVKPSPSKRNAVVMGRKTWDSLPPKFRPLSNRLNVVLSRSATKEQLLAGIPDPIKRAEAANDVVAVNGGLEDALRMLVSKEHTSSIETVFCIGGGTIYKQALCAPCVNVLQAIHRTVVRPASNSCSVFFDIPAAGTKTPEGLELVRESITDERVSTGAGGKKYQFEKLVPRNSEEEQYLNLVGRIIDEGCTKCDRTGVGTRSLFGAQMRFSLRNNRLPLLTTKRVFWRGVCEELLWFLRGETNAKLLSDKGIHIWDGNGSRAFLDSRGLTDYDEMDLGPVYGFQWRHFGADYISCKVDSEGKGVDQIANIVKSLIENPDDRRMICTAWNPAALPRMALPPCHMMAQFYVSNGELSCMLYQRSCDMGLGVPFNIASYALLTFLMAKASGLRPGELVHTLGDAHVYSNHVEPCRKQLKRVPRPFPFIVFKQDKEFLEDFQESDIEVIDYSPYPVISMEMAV
Sequence of CYP3A4 (P08684 whole entry, canonical isoform): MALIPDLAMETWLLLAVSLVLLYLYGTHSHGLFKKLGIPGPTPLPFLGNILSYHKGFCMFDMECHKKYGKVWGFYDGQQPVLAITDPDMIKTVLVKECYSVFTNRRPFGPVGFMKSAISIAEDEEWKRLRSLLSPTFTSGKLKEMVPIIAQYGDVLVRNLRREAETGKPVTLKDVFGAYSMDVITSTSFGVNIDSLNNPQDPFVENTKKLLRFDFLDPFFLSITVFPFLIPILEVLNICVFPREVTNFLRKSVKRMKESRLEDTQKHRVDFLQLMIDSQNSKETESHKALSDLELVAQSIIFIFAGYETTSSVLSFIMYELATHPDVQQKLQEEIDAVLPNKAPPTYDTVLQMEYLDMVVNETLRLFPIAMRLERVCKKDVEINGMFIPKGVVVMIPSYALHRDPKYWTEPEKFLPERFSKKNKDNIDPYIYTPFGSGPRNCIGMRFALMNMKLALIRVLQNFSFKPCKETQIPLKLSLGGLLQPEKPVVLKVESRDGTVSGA
Sequence of CYP2C19 (P33261 whole entry, canonical isoform): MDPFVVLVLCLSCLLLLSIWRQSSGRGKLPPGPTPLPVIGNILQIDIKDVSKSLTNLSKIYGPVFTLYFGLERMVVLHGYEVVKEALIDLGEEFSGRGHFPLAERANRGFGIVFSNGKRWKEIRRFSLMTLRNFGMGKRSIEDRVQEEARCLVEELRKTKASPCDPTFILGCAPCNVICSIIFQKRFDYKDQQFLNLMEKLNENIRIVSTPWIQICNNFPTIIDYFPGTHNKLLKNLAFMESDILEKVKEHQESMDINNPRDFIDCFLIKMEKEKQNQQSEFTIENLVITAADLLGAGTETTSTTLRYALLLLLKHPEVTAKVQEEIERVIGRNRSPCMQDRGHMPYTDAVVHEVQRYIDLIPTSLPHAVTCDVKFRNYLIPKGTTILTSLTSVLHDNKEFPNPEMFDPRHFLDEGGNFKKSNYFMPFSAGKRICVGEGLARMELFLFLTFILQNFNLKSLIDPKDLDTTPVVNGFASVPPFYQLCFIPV
Sequence of CYP2C9 (P11712 whole entry, canonical isoform): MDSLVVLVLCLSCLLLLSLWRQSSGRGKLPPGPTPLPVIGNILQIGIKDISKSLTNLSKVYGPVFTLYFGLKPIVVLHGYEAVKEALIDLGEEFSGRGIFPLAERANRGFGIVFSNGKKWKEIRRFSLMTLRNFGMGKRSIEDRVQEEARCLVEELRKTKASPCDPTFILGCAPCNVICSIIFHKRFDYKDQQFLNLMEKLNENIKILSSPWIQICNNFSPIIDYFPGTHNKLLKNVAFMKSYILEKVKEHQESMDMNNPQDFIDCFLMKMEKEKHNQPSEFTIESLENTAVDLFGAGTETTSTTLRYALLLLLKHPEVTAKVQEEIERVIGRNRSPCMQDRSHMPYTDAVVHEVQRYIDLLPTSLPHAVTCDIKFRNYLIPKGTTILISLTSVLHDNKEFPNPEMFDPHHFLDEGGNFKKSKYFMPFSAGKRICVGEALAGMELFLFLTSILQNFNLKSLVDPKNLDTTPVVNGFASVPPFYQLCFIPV
Sequence of CYP2D6 (P10635 whole entry, canonical isoform): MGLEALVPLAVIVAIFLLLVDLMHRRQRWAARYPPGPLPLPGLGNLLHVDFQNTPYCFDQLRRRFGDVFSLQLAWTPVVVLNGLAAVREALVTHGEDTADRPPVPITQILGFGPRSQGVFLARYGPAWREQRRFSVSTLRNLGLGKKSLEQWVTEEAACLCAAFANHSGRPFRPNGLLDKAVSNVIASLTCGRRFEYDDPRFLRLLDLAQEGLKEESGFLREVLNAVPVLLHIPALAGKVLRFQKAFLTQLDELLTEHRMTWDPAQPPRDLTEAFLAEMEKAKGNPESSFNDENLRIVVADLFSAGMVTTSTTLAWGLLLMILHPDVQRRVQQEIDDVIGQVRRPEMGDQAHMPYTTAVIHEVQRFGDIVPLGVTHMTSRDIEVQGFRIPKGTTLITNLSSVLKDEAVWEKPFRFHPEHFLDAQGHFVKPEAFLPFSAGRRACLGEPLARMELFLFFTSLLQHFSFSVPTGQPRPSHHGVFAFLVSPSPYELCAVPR

Turning to `Nc1nnc(NCc2ccc(-c3ccccc3)cc2)s1` [4m], on TbDHFR, the “inhibitory activity against TbDHFR” value is on record as “neither 4m nor 4o is able to inhibit”. Also, the inhibition (as a rule, the relative decrease from the control value, in per cent) at 100 µM against hDHFR was 40%. Besides, the inhibition at 10 µM was 60.4 ± 4.5% at CYP1A2; 46.9 ± 4.4% on CYP2C9; 53.6 ± 0.6% at CYP2D6; 22.5 ± 4.7% at CYP2C19; 25.6 ± 6.3% at CYP3A4; -2.5 ± 6.1% with 786-O. Moreover, the inhibition at 50 µM at TbPTR1 was determined as 73 ± 1.1%. For the same compound, half-maximal inhibition on TbPTR1 (IC50) was put at 16 µM.

In the case of `Nc1nnc(NCCc2cccs2)s1` [4o, N2G(2G(thiophenG2Gyl)ethyl)G1,3,4GthiadiazoleG2,5Gdiamine], on TbDHFR, the “inhibitory activity against TbDHFR” value is “neither 4m nor 4o is able to inhibit”. Further, the inhibition at 100 µM on hDHFR was found to be 24%. In addition, the inhibition at 10 µM at CYP1A2 is -2.9 ± 3.4%; at CYP2C9, 3.1 ± 4.8%; on CYP2D6 it was 81.2 ± 1.2%; on CYP2C19 it was -20.9 ± 6.1%; on CYP3A4, 30.4 ± 4.5%; in the data set with 786-O it was 0.5 ± 4.8%. On TbPTR1, the inhibition at 50 µM worked out at 79.8 ± 0.4%. The IC50 – broadly, the concentration that inhibits the measured activity by half – against TbPTR1 came to 25 µM.

The values above are taken from article PMC5623949, “Exploiting the 2-Amino-1,3,4-thiadiazole Scaffold To Inhibit Trypanosoma brucei Pteridine Reductase in Support of Early-Stage Drug Discovery” (ACS Omega, 2017).
